Patent publication US8871269B2, “Method for the preparation of controlled release formulations” (Evonik Corporation, priority 2003, dated 2014)

Assay: Stability of free peptide incubated in release medium (HPLC)
Assay type: physicochemical
Conditions: free peptide incubated in release medium (PBS, pH 7.2, 37 C), after 49 days
Description: Octreotide acetate as the free peptide was measured to be 95% intact by high-pressure liquid chromatography (HPLC) following incubation in the release medium (PBS, pH 7.2, 37° C.) after 49 days. In contrast, incubation of octreotide acetate PLGA microparticle formulations produced 55% of modified peptide species after 70 days in the release medium (PBS, pH 7.2, 37° C., Table 2). […] The masses found were consistent with random acylation, for example, peptide plus one or two glycolic or lactic acid monomers in any combination. It may be that acylation products arise from attack on PLGA fragments or the polymer backbone by nucleophilic moieties in octreotide. At a lower pH these moieties likely would be protonated reducing their nucleophilicity and consequently the amount of acylated product. It was observed that formation of acylated byproducts for octreotide acetate PLGA microparticles incubated in 100 mM sodium acetate (NaOAc, pH 4.0) buffer was reduced to 1.25% at 49 days, in marked contrast to the results for PBS buffer (55%).

Peptide intact by HPLC: 95%
SMILES: C[C@@H](O)[C@@H]1NC(=O)[C@H](CCCCN)NC(=O)[C@@H](Cc2c[nH]c3ccccc23)NC(=O)[C@H](Cc2ccccc2)NC(=O)[C@@H](NC(=O)[C@H](N)Cc2ccccc2)CSSC[C@@H](C(=O)N[C@H](CO)[C@@H](C)O)NC1=O [Octreotide acetate]
